The test system of assay [1] is Foxc2^+/CreERT2 mice. Put plainly: Mesenteric lymphatic valve counting after i.p. injection in pups. It counts as in vivo, mouse. The text has this: FIGS. 3A-3F. AS1842856 treatment in vivo increases valve number in Foxc2^+/CreERT2 mice. (A) Schematic illustration of AS1842856 injection procedure in postnatal day (P) 7-21 pups. (B-E) Fluorescent images showing the morphology of mesenteric collecting lymphatic vessels at P21. Mesenteries are from Prox1-GFP with DMSO (vehicle control) injection (B); Prox1-GFP with AS1842856 injection (C); Foxc2^+/CreERT2; Prox1-GFP with DMSO injection (D); Foxc2^+/CreERT2; Prox1-GFP with AS1842856 injection (E). (F) Quantification of valves per millimeter at P21 from 4 groups of mice. 4 mice are used for the analysis. All values are mean±SEM. Two-way ANOVA was performed with Turkey's multiple comparisons. ns=not significant, *p≤0.05, ***p<0.001. Scale bar is 1000 μm.
(§1) Foxc2 is a chief regulator of lymphatic valve development modulating the expression of many valve genes (Sabine et al., 2015). While Foxc2 null animals are embryonic lethal, the Foxc2 heterozygous mice are a model of the human disease lymphedema-distichiasis with severe lymphatic valve loss (Kriederman et al., 2003, Petrova et al., 2004). To test whether AS1842856 treatment increases valve growth in vivo, the inventors intraperitoneally (i.p.) injected AS1842856 into Foxc2^+/CreERT2 pups. Instead of using wildtype pups as control, Prox1-GFP mice were used as control as well as for visualizing the lymphatic vasculature (Choi et al., 2011). The Foxc2^+/CreERT2 pups were also bred to carry the Prox1-GFP allele. Since the open reading frame in one allele of the Foxc2 gene is replaced with the cDNA for CreERT2, the Foxc2^+/CreERT2 mice is heterozygous for Foxc2 gene (Geng et al., 2016). […] To compare the number of valves from these 4 groups, the inventors counted total number of valves from 6 branches (from the lymph nodes to the gut wall) in the mesentery and measured the total length of these branches as previously published (Scallan et al., 2021). […]
TM administered postnatal pups were euthanized using an IACUC approved method and the colleting lymphatics were analyzed at the experimental timepoints. […]

In assay [2] the test system is Foxc2^+/CreERT2 mice. In words: Whole-mount immunostaining of mesenteric collecting lymphatic vessels after injection. Format: in vivo, mouse.
Text: FIG. 4. AS1842856 injection promotes b-catenin nuclear localization in vivo. Panels A-P′ show whole-mount immunostaining of P10 mesenteric collecting lymphatic vessels from wildtype and Foxc2^+/CreERT2 pups with vehicle control (DMSO) or AS1842856 injection. Prox1 in green, Ctnnb1 in purple, and VE-cadherin in gray. A′-P′ are the higher magnification images of the white box areas in A-P. Scale bars are 100 μm.
as §1, with “Instead of using wildtype pups as control, Prox1-GFP mice were used as control as well as for visualizing the lymphatic vasculature (Choi et al., 2011). The Foxc2^+/CreERT2 pups were also bred to carry the Prox1-GFP allele.” left out

The next assay concerns the target FOXO1 (Homo sapiens, UniProt Q12778). Particulars: binds to FOXO1 protein, prevents binding to promoter regions; Nagashima et al., 2010; cited from earlier work.

The structures appear in SMILES notation.

FOXO1, sequence (Q12778 whole entry, species assumed): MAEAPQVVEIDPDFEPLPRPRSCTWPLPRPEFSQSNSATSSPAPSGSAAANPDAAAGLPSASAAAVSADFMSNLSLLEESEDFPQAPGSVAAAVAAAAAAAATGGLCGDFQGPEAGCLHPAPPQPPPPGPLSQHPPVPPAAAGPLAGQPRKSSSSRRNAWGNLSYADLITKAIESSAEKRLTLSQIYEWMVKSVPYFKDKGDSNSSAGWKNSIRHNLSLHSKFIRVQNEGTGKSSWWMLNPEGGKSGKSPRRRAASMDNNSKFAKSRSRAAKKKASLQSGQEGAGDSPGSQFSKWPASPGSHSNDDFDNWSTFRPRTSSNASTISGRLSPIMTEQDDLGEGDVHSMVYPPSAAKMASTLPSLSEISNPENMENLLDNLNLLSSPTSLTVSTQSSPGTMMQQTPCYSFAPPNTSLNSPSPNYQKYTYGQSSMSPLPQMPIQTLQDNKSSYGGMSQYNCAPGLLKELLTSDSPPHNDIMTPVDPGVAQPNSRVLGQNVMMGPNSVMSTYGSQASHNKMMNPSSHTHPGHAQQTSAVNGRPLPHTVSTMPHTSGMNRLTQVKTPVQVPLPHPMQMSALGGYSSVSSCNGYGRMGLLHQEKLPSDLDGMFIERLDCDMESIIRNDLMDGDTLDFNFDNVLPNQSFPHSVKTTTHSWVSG

On to `CCn1cc(C(=O)O)c(=O)c2c(N)c(F)c(NC3CCCCC3)cc21` [AS1842856], for which the valves/mm in mesentery entry with Foxc2^+/CreERT2 mice [1] (Foxc2^+/CreERT2 pups with AS1842856 injection (8 mg/kg i.p. every other day P7-P21) vs Foxc2^+/CreERT2 pups with DMSO injection) is given as “significantly higher”; in the assay on Foxc2^+/CreERT2 mice [1] (Foxc2^+/CreERT2 pups with AS1842856 injection (8 mg/kg i.p. every other day P7-P21) vs Prox1-GFP pups with DMSO injection), “still significantly lower”; in the assay on Foxc2^+/CreERT2 mice [1] (Prox1-GFP pups with AS1842856 injection (8 mg/kg i.p. every other day P7-P21) vs Prox1-GFP pups with DMSO injection) it was “no significant difference”. For the same compound, the “valves expressing Itga9 (whole-mount immunostaining)” value with Foxc2^+/CreERT2 mice [2] (AS1842856 treated Foxc2^+/CreERT2 pups) is “all the valves”. For the same compound, in the assay with Foxc2^+/CreERT2 mice [2] (P10 mesenteries after two injections, wildtype and Foxc2^+/CreERT2 pups, vs DMSO injected group), the “nuclear localization of β-catenin in mesenteric LECs in vivo” value is reported as “increased nuclear purple staining from β-catenin”. Moreover, at FOXO1, the “effect on transcription activity of FOXO1 in the nucleus” value is given as “reduces the transcription activity of FOXO1”.
